Patent EP2298778A1, “IMIDAZOTHIAZOLE DERIVATIVE HAVING 4,7-DIAZASPIROÝ2.5¨OCTANE RING STRUCTURE” (Daiichi Sankyo Company, Limited, priority 2008, dated 2009)

Assay: Metabolic stability test (microsomal metabolism test)
Type: in vitro ADME
Conditions: pH 7.4; human-derived liver microsomes, test compound remaining after addition of NADP+ and incubation at 37°C for 30 minutes; read-out: metabolic stability of T/C%
Description: (Test Example 3 Metabolic stability test) 100 µL of 100 mM phosphate buffer solution (pH 7.4) containing 3 µM test compound was added to 100 µL of reaction solution containing 100 mM phosphate buffer solution (pH 7.4), 30 mM glucose 6-phosphate, 10 mM MgCl2·6H2O, 3 units/mL glucose 6-phosphate 1-dehydrogenase, and 0.3 to 1.5 mgP/mL human liver microsomes and the mixture was incubated at 37°C for 20 minutes. Then, 70 µL of 100 mM phosphate buffer solution (pH 7.4) containing 3 mM NADP^+ was added and the mixture was incubated at 37°C for 30 minutes to conduct a microsomal metabolism test. The metabolic stability was calculated according to the following formula: T/C (%) = ((concentration of test compound after addition of NADP)^+and incubation for30minutes)/((concentration of test compound before addition of NADP)^+) × 100. [formula] […]

SMILES	remaining at 0.5 h [%]
CC(=O)N1CCN(C(=O)[C@@H]2CCC(=O)N2C(=O)C2=C(C(C)C)N3C(=N[C@@](C)(c4ccc(Cl)nc4)[C@H]3c3ccc(Cl)c(F)c3)S2)CC12CC2 [Example 45, (5S)-5-[(4-acetyl-4,7-diazaspiro[2.5]oct-7-yl)carbonyl]-1-{[(5R,6S)-5-(4-chloro-3-fluorophenyl)-6-(6-chloropyridin-3-yl)-3-isopropyl-6-methyl-5,6-dihydroimidazo[2,1-b][1,3]thiazol-2-yl]carbonyl}pyrrolidin-2-one]	≥ 50
CO[C@@H]1C[C@@H](C(=O)N2CC3(CC3)NC[C@@H]2C)N(C(=O)C2=C(C(C)C)N3C(=N[C@@](C)(c4ccc(Cl)nc4)[C@H]3c3ccc(Cl)c(F)c3)S2)C1 [Example 63, (6S)-7-[(4R)-1-{[(5R,6S)-5-(4-chloro-3-fluorophenyl)-6-(6-chloropyridin-3-yl)-3-isopropyl-6-methyl-5,6-dihydroimidazo[2,1-b][1,3]thiazol-2-yl]carbonyl}-4-methoxy-L-prolyl]-6-methyl-4,7-diazaspiro[2.5]octane]	≥ 50
CC(C)C1=C(C(=O)N2[C@H](C)CC[C@H]2C(=O)N2CCNC3(CC3)C2)SC2=N[C@@](C)(c3ccc(Cl)nc3)[C@@H](c3ccc(Cl)c(O)c3)N21 [Example 71, 2-chloro-5-[(5R,6S)-6-(6-chloropyridin-3-yl)-2-{[(2S,5R)-2-(4,7-diazaspiro[2.5]oct-7-ylcarbonyl)-5-methylpyrrolidin-1-yl]carbonyl}-3-isopropyl-6-methyl-5,6-dihydroimidazo[2,1-b][1,3]thiazol-5-yl]phenol]	≥ 50
CC(C)C1=C(C(=O)N2[C@H](C)CC[C@H]2C(=O)N2CCNC3(CC3)C2)SC2=N[C@@](C)(c3ccc(Cl)nc3)[C@@H](c3ccc(C(F)(F)F)c(F)c3)N21 [Example 74, 7-[(5R)-1-({(5R,6S)-6-(6-chloropyridin-3-yl)-5-[3-fluoro-4-(trifluoromethyl)phenyl]-3-isopropyl-6-methyl-5,6-dihydroimidazo[2,1-b][1,3]thiazol-2-yl}carbonyl)-5-methyl-L-prolyl]-4,7-diazaspiro[2.5]octane]	≥ 50
CC(C)C1=C(C(=O)N2[C@H](CF)CC[C@H]2C(=O)N2CCN(C)C3(CC3)C2)SC2=N[C@@](C)(c3ccc(Cl)nc3)[C@@H](c3ccc(Cl)c(F)c3)N21 [Example 41, 7-[(5S)-1-{[(5R,6S)-5-(4-chloro-3-fluorophenyl)-6-(6-chloropyridin-3-yl)-3-isopropyl-6-methyl-5,6-dihydroimidazo[2,1-b][1,3]thiazol-2-yl]carbonyl}-5-(fluoromethyl)-L-prolyl]-4-methyl-4,7-diazaspiro[2.5]octane]	≥ 50
CC(C)C1=C(C(=O)N2[C@H](C)CC[C@H]2C(=O)N2CCNC3(CC3)C2)SC2=N[C@@](C)(c3ccc(Cl)nc3)[C@@H](c3ccc(Cl)c(F)c3)N21 [Example 11, 7-[(5R)-1-{[(5R,6S)-5-(4-chloro-3-fluorophenyl)-6-(6-chloropyridin-3-yl)-3-isopropyl-6-methyl-5,6-dihydroimidazo[2,1-b] [1,3]thiazol-2-yl]carbonyl}-5-methyl-L-prolyl]-4,7-diazaspiro[2.5]octane]	≥ 50
CC[C@@H]1CNC2(CC2)CN1C(=O)[C@@H]1CCCN1C(=O)C1=C(C(C)C)N2C(=N[C@@](C)(c3ccc(Cl)nc3)[C@H]2c2ccc(Cl)c(F)c2)S1 [Example 62, (6R)-7-(1-{[(5R,6S)-5-(4-chloro-3-fluorophenyl)-6-(6-chloropyridin-3-yl)-3-isopropyl-6-methyl-5,6-dihydroimidazo[2,1-b][1,3]thiazol-2-yl]carbonyl}-L-prolyl)-6-ethyl-4,7-diazaspiro[2.5]octane]	≥ 50
CC(C)C1=C(C(=O)N2[C@H](C)CC[C@H]2C(=O)N2CCNC3(CC3)C2)SC2=N[C@@](C)(c3ccc(Cl)nc3)[C@@H](c3ccc(Cl)cc3)N21 [Example 8, 7-[(5R)-1-{[(5R,6S)-5-(4-chlorophenyl)-6-(6-chloropyridin-3-yl)-3-isopropyl-6-methyl-5,6-dihydroimidazo[2,1-b][1,3]thiazol-2-yl]carbonyl}-5-methyl-L-prolyl]-4,7-diazaspiro[2.5]octane]	≥ 50
CC(C)C1=C(C(=O)N2[C@H](C)CC[C@H]2C(=O)N2CCNC3(CC3)C2)SC2=N[C@@](C)(c3ccc(Cl)nc3)[C@@H](c3ccc(Cl)c(Cl)c3)N21 [Example 31, 7-[(5R)-1-{[(5R,6S)-6-(6-chloropyridin-3-yl)-5-(3,4-dichlorophenyl)-3-isopropyl-6-methyl-5,6-dihydroimidazo[2,1-b][1,3]thiazol-2-yl]carbonyl}-5-methyl-L-prolyl]-4,7-diazaspiro [2.5] octane]	≥ 50
CC(C)C1=C(C(=O)N2C(=O)CC[C@H]2C(=O)N2CCNC3(CC3)C2)SC2=N[C@@](C)(c3ccc(Cl)cc3)[C@@H](c3ccc(Cl)cc3)N21 [Example 42, (5S)-1-{[(5R,6S)-5,6-bis(4-chlorophenyl)-3-isopropyl-6-methyl-5,6-dihydroimidazo[2,1-b][1,3]thiazol-2-yl]carbonyl}-5-(4,7-diazaspiro[2.5]oct-7-ylcarbonyl)pyrrolidin-2-one]	≥ 50
CC[C@@H]1CNC2(CC2)CN1C(=O)[C@@H]1CC[C@@H](C)N1C(=O)C1=C(C(C)C)N2C(=N[C@@](C)(c3ccc(Cl)nc3)[C@H]2c2ccc(Cl)c(F)c2)S1 [Example 59, (6R)-7-[(5R)-1-{[(5R,6S)-5-(4-chloro-3-fluorophenyl)-6-(6-chloropyridin-3-yl)-3-isopropyl-6-methyl-5,6-dihydroimidazo[2,1-b][1,3]thiazol-2-yl]carbonyl}-5-methyl-L-prolyl]-6-ethyl-4,7-diazaspiro[2.5]octane]	≥ 50
CC[C@@H]1CC[C@@H](C(=O)N2CC3(CC3)NC[C@@H]2C)N1C(=O)C1=C(C(C)C)N2C(=N[C@@](C)(c3ccc(Cl)nc3)[C@H]2c2ccc(Cl)c(F)c2)S1 [Example 56, (6S)-7-[(5R)-1-{[(5R,6S)-5-(4-chloro-3-fluorophenyl)-6-(6-chloropyridin-3-yl)-3-isopropyl-6-methyl-5,6-dihydroimidazo[2,1-b][1,3]thiazol-2-yl]carbonyl}-5-ethyl-L-prolyl]-6-methyl-4,7-diazaspiro[2.5]octane]	≥ 50
CC(C)C1=C(C(=O)N2[C@H](C)CC[C@H]2C(=O)N2CCNC3(CC3)C2)SC2=N[C@@](C)(c3ccc(Cl)cc3)[C@@H](c3ccc(Cl)cc3)N21 [Example 1, 7-[(5R)-1-{[(5R,6S)-5,6-bis(4-chlorophenyl)-3-isopropyl-6-methyl-5,6-dihydroimidazo[2,1-b][1,3]thiazol-2-yl]carbonyl}-5-methyl-L-prolyl]-4,7-diazaspiro[2.5]octane]	≥ 50
CC(C)C1=C(C(=O)N2CCC[C@H]2C(=O)N2CC3(CC3)NC[C@@H]2C)SC2=N[C@@](C)(c3ccc(Cl)nc3)[C@@H](c3ccc(Cl)c(F)c3)N21 [Example 57, (6S)-7-(1-{[(5R,6S)-5-(4-chloro-3-fluorophenyl)-6-(6-chloropyridin-3-yl)-3-isopropyl-6-methyl-5,6-dihydroimidazo[2,1-b][1,3]thiazol-2-yl]carbonyl}-L-prolyl)-6-methyl-4,7-diazaspiro[2.5]octane]	≥ 50
CC(C)C1=C(C(=O)N2[C@H](C)CC[C@H]2C(=O)N2C[C@@H](C)NC3(CC3)C2)SC2=N[C@@](C)(c3ccc(Cl)nc3)[C@@H](c3ccc(Cl)c(F)c3)N21 [Example 17, (5R)-7-[(5R)-1-{ [(5R,6S)-5-(4-chloro-3-fluorophenyl)-6-(6-chloropyridin-3-yl)-3-isopropyl-6-methyl-5,6-dihydroimidazo[2,1-b][1,3]thiazol-2-yl]carbonyl}-5-methyl-L-prolyl]-5-methyl-4,7-diazaspiro[2.5]octane]	≥ 50
CC(C)C1=C(C(=O)N2[C@H](C)CC[C@H]2C(=O)N2CCN(CCO)C3(CC3)C2)SC2=N[C@@](C)(c3ccc(Cl)nc3)[C@@H](c3ccc(Cl)cc3)N21 [Example 10, 2-{7-[(5R)-1-{[(5R,6S)-5-(4-chlorophenyl)-6-(6-chloropyridin-3-yl)-3-isopropyl-6-methyl-5,6-dihydroimidazo[2,1-b][1,3]thiazol-2-yl]carbonyl}-5-methyl-L-prolyl]-4,7-diazaspiro[2.5]oct-4-yl}ethanol]	≥ 50
CC(C)C1=C(C(=O)N2[C@H](C)CC[C@H]2C(=O)N2CCN(C)C3(CC3)C2)SC2=N[C@@](C)(c3ccc(Cl)nc3)[C@@H](c3ccc(Cl)c(F)c3)N21 [Example 12, 7-[(5R)-1-{[(5R,6S)-5-(4-chloro-3-fluorophenyl)-6-(6-chloropyridin-3-yl)-3-isopropyl-6-methyl-5,6-dihydroimidazo[2,1-b][1,3]thiazol-2-yl]carbonyl}-5-methyl-L-prolyl]-4-methyl-4,7-diazaspiro[2.5]octane]	≥ 50
CC(C)C1=C(C(=O)N2[C@H](C)CC[C@H]2C(=O)N2CCNC3(CC3)C2)SC2=N[C@@](C)(c3ccc(F)cc3)[C@@H](c3ccc(Cl)c(F)c3)N21 [Example 25, 7-[(5R)-1-{[(5R,6S)-5-(4-chloro-3-fluorophenyl)-6-(4-fluorophenyl)-3-isopropyl-6-methyl-5,6-dihydroimidazo[2,1-b][1,3]thiazol-2-yl]carbonyl}-5-methyl-L-prolyl]-4,7-diazaspiro[2.5]octane]	≥ 50
